21 compounds from US8921576B2, “Spiroindoline compound, and medicinal agent comprising same” (Kowa Company, Ltd., priority 2011, dated 2014) can be followed below.

This assay addresses T1, GST-GK derived from human liver GK (Homo sapiens, UniProt P35557).
T1 construct: made in house; host or cells: Escherichia coli DH5α
T1 sequence (P35557 1-466 isoform P35557-2): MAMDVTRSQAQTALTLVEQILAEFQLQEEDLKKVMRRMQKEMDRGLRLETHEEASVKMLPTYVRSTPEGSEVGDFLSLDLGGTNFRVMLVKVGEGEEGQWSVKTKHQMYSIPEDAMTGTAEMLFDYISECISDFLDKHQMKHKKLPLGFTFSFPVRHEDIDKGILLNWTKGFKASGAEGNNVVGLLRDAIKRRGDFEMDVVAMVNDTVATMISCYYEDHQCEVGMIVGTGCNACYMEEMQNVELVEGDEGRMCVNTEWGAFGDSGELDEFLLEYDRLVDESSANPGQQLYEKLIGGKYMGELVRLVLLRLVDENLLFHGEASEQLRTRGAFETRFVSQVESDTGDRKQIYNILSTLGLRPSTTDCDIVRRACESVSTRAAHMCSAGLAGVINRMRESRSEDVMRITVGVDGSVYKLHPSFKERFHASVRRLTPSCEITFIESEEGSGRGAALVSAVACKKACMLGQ
Briefly: In vitro GK activity measurement test (G6PDH-coupled, OD340). In kind it is biochemical. Particulars: test compound 1 μmol/L; glucose 2.5 mmol/L; 25° C.; OD340 slope with compound / without compound; read-out: GK activation rate (%). The text has this:
cDNA (GenBank Accession No. NM_033507, human glucokinase, variant 2) encoding human liver-type GK polypeptide was cloned by performing a polymerase chain reaction (hereinafter referred to as “PCR”) using a human liver cDNA library (Human liver QUICK-Clone cDNA, TAKARA BIO INC.), and the thus cloned cDNA was then introduced into an expression vector (pGEX-3X, GE Healthcare Japan) for glutathione S transferase (hereinafter referred to as GST) fusion protein expression. The resulting vector was introduced into Escherichia coli (Competent high DH5α, Toyobo Co., Ltd.), and the transformed Escherichia coli was then cultured at 37° C. Thereafter, Isopropyl β-D-1-thiogalactopyranoside (final concentration: 1 mmol/L, Sigma Aldrich Japan) was added to the culture, and the obtained mixture was then cultured at 30° C. for 3 hours. Thereafter, a cell mass was recovered. The recovered cell mass was subjected to freezing-and-thawing, and the resulting cell mass was then suspended in phosphate buffer with final concentration of 1% Triton X-100, followed by disintegration with an ultrasonic disruptor. The homogenate was centrifuged at 33,200 rpm at 4° C. for 1 hour. Thereafter, the supernatant was recovered, and a GST-GK fusion protein was then purified using a glutathione column (GSTrap FF, GE Healthcare Japan). The obtained GST-GK fusion protein was divided into some portions each having a small volume, and the thus divided proteins were then preserved at −80° C.
A GK assay method was carried out at 25° C. at a final incubation volume of 100 μL in a flat-bottom 96-well assay plate. An assay buffer comprised 25 mmol/L Hepes buffer (pH 7.1), 25 mmol/L KCl, 2.5 mmol/L or 10 mmol/L D-glucose, 5 mmol/L ATP, 1 mmol/L nicotinamide adenine dinucleotide phosphate (abbreviated as NADP), 2 mmol/L MgCl2, 1 mmol/L dithiothreitol (DTT), 2 units/mL glucose-6 phosphate dehydrogenase (G6PDH), and 1 μg/mL GST-GK derived from human liver GK. ATP, G6PDH, and NADP were purchased from Roche Diagnostics. […] The thus mixed solution was preincubated in an incubator in which the temperature was controlled at 25° C. for 15 minutes. Subsequently, the reaction was initiated by adding 10 μL of the GST-GK solution to the reaction mixture, resulting in a final concentration of 0.1 μg/mL. After initiation of the reaction, an increase in the optical concentration at 340 nm (OD340) was monitored with a microplate spectrophotometer (Varsamax, Molecular Devices Japan K.K.) every 10 seconds over an incubation period of 10 minutes. An inclination of the OD340 increase was defined as raw data. The GK activating rate was indicated as a numerical value obtained from the expression: (Inclination of OD340 increase by addition of the test compound)/(inclination of OD340 increase without addition of the test compound). The results of the GK activating rate obtained at a test compound concentration of 1 μmol/L under the condition of a glucose concentration of 2.5 mmol/L are shown in the following table.
For the compound `CNC(=O)N1CC[C@@]2(C1)CN(C(=O)Nc1ncc(F)s1)c1ccc(C(F)(F)F)cc12` [Example 487, (R)—N1-(5-Fluorothiazol-2-yl)-N1′-methyl-5-(trifluoromethyl)spiro[indoline-3,3′-pyrrolidine]-1,1′-dicarboxamide], the activity at 1 µM was 659%.
In the case of `COC(=O)N1CCC2(C1)CN(C(=O)Nc1ncc(SCCCC(=O)N3CC(O)C3)s1)c1ccc(Cl)cc12` (stereo not drawn) [Example 170, methyl 5-chloro-1-((5-((4-(3-hydroxyazetidin-1-yl)-4-oxobutyl)thio)thiazol-2-yl)carbamoyl)spiro[indoline-3,3′-pyrrolidine]-1′-carboxylate], the activity at 1 µM was found to be 506%.
As for `COc1cnc(NC(=O)N2CC3(CCN(C(=O)CO)C3)c3cc(C(F)(F)F)ccc32)s1` (stereo not drawn) [Example 441, 1′-(2-Hydroxyacetyl)-N-(5-methoxythiazol-2-yl)-5-(trifluoromethyl)spiro[indoline-3,3′-pyrrolidine]-1-carboxamide], the figure is 416%; as for `COC(=O)N1CCC2(C1)CN(C(=O)Nc1ncc(Oc3cccc(C(N)=O)c3)s1)c1ccc(Cl)cc12` (stereo not drawn) [Example 186, methyl 1-((5-(3-carbamoylphenoxy)thiazol-2-yl)carbamoyl)-5-chlorospiro[indoline-3,3′-pyrrolidine]-1′-carboxylate], 583%; as for `COC(=O)N1CC[C@@]2(C1)CN(C(=O)Nc1ncc(Cl)s1)c1ccc(Br)cc12` [Example 320, (S)-methyl 5-bromo-1-((5-chlorothiazol-2-yl)carbamoyl)spiro[indoline-3,3′-pyrrolidin]-1′-ylcarboxylate], 818%.
Turning to `COC(=O)N1CCC2(C1)CN(C(=O)Nc1ncc(SCCCC(=O)NO)s1)c1ccc(Cl)cc12` (stereo not drawn) [Example 169, methyl 5-chloro-1-((5-((4-(hydroxyamino)-4-oxobutyl)thio)thiazol-2-yl)carbamoyl)spiro[indoline-3,3′-pyrrolidine]-1′-carboxylate], the activity at 1 µM was determined as 532%.
As to `COc1ccc2nc(NC(=O)N3CC4(CCN(C(C)=O)C4)c4cc(S(=O)(=O)N(CCO)CC5CC5)ccc43)sc2n1` (stereo not drawn) [Example 302, 1′-acetyl-5-(N-(cyclopropylmethyl)-N-(2-hydroxyethyl)sulfamoyl)-N-(5-methoxythiazolo[5,4-b]pyridin-2-yl)spiro[indoline-3,3′-pyrrolidine]-1-carboxamide], the activity at 1 µM came to 843%.
With `COC(=O)N1CCC2(C1)CN(C(=O)Nc1ncc(SCC(=O)N(C)C)s1)c1ccc(Cl)cc12` (stereo not drawn) [Example 131, methyl 5-chloro-1-((5-((2-(dimethylamino)-2-oxoethyl)thio)thiazol-2-yl)carbamoyl)spiro[indoline-3,3′-pyrrolidine]-1′-carboxylate] the figure was 411%; with `COC(=O)N1CCC2(C1)CN(C(=O)Nc1ncc(SCCCNS(=O)(=O)C3CC3)s1)c1ccc(Cl)cc12` (stereo not drawn) [Example 179, methyl 5-chloro-1-((5-((3-(cyclopropanesulfonamido)propyl)thio)thiazol-2-yl)carbamoyl)spiro[indoline-3,3′-pyrrolidine]-1′-carboxylate], 669%.
As for `COc1ccc2nc(NC(=O)N3CC4(CCN(C(C)=O)C4)c4cc(S(=O)(=O)NCc5ccco5)ccc43)sc2n1` (stereo not drawn) [Example 271, 1′-Acetyl-5-(N-(furan-2-ylmethyl)sulfamoyl)-N-(5-methoxythiazolo[5,4-b]pyridin-2-yl)spiro[indoline-3,3′-pyrrolidine]-1-carboxamide], the figure is 578%.
With `CNC(=O)N1CCC2(C1)CN(C(=O)Nc1ncc(OC)s1)c1ccc(C(F)(F)F)cc12` (stereo not drawn) [Example 439, N1-(5-Methoxythiazol-2-yl)-N1′-methyl-5-(trifluoromethyl)spiro[indoline-3,3′-pyrrolidine]-1,1′-dicarboxamide] the figure was 520%.
With `CN(C)CCN(Cc1ccccc1)S(=O)(=O)c1ccc2c(c1)C1(CCN(C=O)C1)CN2C(=O)Nc1ncc(F)s1` (stereo not drawn) [Example 308, 5-(N-benzyl-N-(2-(dimethylamino)ethyl)sulfamoyl)-N-(5-fluorothiazol-2-yl)-1′-formylspiro[indoline-3,3′-pyrrolidine]-1-carboxamide], the activity at 1 µM was found to be 504%.
With `NCC(=O)N1CC[C@@]2(C1)CN(C(=O)Nc1ncc(Cl)s1)c1ccc(Cl)cc12` [Example 353, (R)-1′-(2-aminoacetyl)-5-chloro-N-(5-chlorothiazol-2-yl)spiro[indoline-3,3′-pyrrolidine]-1-carboxamide] the figure was 486%; with `CONC(=O)CCCSc1cnc(NC(=O)N2CC3(CCN(C(=O)OC)C3)c3cc(Cl)ccc32)s1` (stereo not drawn) [Example 168, methyl 5-chloro-1-((5-((4-(methoxyamino)-4-oxobutyl)thio)thiazol-2-yl)carbamoyl)spiro[indoline-3,3′-pyrrolidine]-1′-carboxylate], 462%; with `COC(=O)N1CCC2(C1)CN(C(=O)Nc1ncc(SCCCN(C)C)s1)c1ccc(Cl)cc12` (stereo not drawn) [Example 180, Methyl 5-chloro-1-((5-((3-(dimethylamino)propyl)thio)thiazol-2-yl)carbamoyl)spiro[indoline-3,3′-pyrrolidine]-1′-carboxylate], 442%.
With `COC(=O)N1CC[C@@]2(C1)CN(C(=O)Nc1nc3ccc(OC)nc3s1)c1ccc(S(=O)(=O)N(CCCC(=O)O)Cc3ccccc3)cc12` [Example 342, (S)-4-(N-benzyl-1′-(methoxycarbonyl)-1-((5-methoxythiazolo[5,4-b]pyridin-2-yl)carbamoyl)spiro[indoline-3,3′-pyrrolidin]-5-ylsulfonamido)butyric acid] the figure was 420%; with `COc1cnc(NC(=O)N2CC3(CCN(C(C)=O)C3)c3cc(C(F)(F)F)ccc32)s1` (stereo not drawn) [Example 437, 1′-Acetyl-N-(5-methoxythiazol-2-yl)-5-(trifluoromethyl)spiro[indoline-3,3′-pyrrolidine]-1-carboxamide], 506%.
As for `CNC(=O)CCNC(=O)N1CCC2(C1)CN(C(=O)Nc1ncc(Cl)s1)c1ccc(Cl)cc12` (stereo not drawn) [Example 465, 5-Chloro-N1-(5-chlorothiazol-2-yl)-N1′-(3-(methylamino)-3-oxopropyl)spiro[indoline-3,3′-pyrrolidine]-1,1′-dicarboxamide], the figure is 474%; as for `CCNC(=O)N1CCC2(C1)CN(C(=O)Nc1ncc(Cl)s1)c1ccc(Cl)cc12` (stereo not drawn) [Example 379, 5-Chloro-N1-(5-chlorothiazol-2-yl)-N1′-ethylspiro[indoline-3,3′-pyrrolidine]-1,1′-dicarboxamide], 554%; as for `COc1ccc2nc(NC(=O)N3CC4(CCN(C(C)=O)C4)c4cc(S(=O)(=O)NCc5ccccc5F)ccc43)sc2n1` (stereo not drawn) [Example 269, 1′-Acetyl-5-(N-(2-fluorobenzyl)sulfamoyl)-N-(5-methoxythiazolo[5,4-b]pyridin-2-yl)spiro[indoline-3,3′-pyrrolidine]-1-carboxamide], 640%.
For `CC(=O)N1CC(CNC(=O)N2CCC3(C2)CN(C(=O)Nc2ncc(Cl)s2)c2ccc(C(F)(F)F)cc23)C1` (stereo not drawn) [Example 445, N1′-((1-acetylazetidin-3-yl)methyl)-N1-(5-chlorothiazol-2-yl)-5-(trifluoromethyl)spiro[indoline-3,3′-pyrrolidine]-1,1′-dicarboxamide], the activity at 1 µM amounted to 500%.
